Source: patent publication US4605655A, “Antipsychotic 1-fluorophenylbutyl-4-(2-pyrimidinyl)piperazine derivatives” (Bristol-Myers Company, priority 1984, dated 1986)
“Also recorded” adds a separate entry of the source. Like-named read-outs stand apart in the source and are kept apart here.

Assays:
[1] = system: apomorphine stereotypy (dopaminergic activity); test: Inhibition of Apomorphine-Induced (APO) Stereotypy; assay type: in vivo, rats
Description: 2. Inhibition of Apomorphine-Induced (APO) Stereotype--an assessment of blockade of dopaminergic activity in rats as measured by attentuation of the behavioral syndrome caused by the dopamine agonist, apomorphine. cf. Janssen, et al, Arzneimittel. Forsch., 17, 841 (1966).

[2] = Catalepsy Reversal (neuroleptic-induced catalepsy); assay type: in vivo, rat; details: for reversal of neuroleptic-induced catalepsy, potency relative to racemic material: compared with racemic BMY 14802; for Catalepsy Reversal ED50: p.o.
Description: 4. Catalepsy Reversal--measure of a drug's ability to reverse neuroleptic-induced catalepsy in the rat.

[3] = Conditioned Avoidance Response (CAR); assay type: in vivo, trained fasted rats
Description: 1. Conditioned Avoidance Response (CAR)--measure of a drug's tranquilizing activity as determined by its attenuation of avoidance response to electrical shock in trained fasted rats. cf: Albert, Pharmacologist, 4, 152 (1962); Wu, et al, J. Med. Chem., 12, 876-881 (1969).

opiate binding sites = test: Opiate receptor binding; details: in words
Description: (§1) As further indication of the psychotropic activity and specificity of the instant compounds, state of the art in vitro central nervous system receptor binding methodology can be employed. Certain compounds (commonly referred to as ligands) have been identified which preferentially bind to specific high affinity sites in brain tissue dealing with psychotropic activity or potential for side effects. Inhibition of radiolabeled ligand binding to such specific high affinity sites is considered a measure of the compound's ability to affect corresponding central nervous system function or cause side effects in vivo. This principal is employed in the following assays which are given by way of example.

Catalepsy = assay type: in vivo, rats; details: for ED50: rat, in vivo, po
[4] = system: Dopamine receptor (striatal tissue); test: Dopamine (DA) receptor binding vs. [^3 H]spiperone
Description: as §1, with “Certain compounds (commonly referred to as ligands) have been identified which preferentially bind to specific high affinity sites in brain tissue dealing with psychotropic activity or potential for side effects.” left out
Dopamine Burt, et al., Molec. Pharmacol., 12, 800

GABA binding sites = test: GABA receptor binding; details: in words
Description: as §1

[5] = system: serotonergic binding sites; test: Serotonergic receptor binding; details: in words
Description: as §1
Peroutka and Snyder, Molec. Pharmacol.,

[6] = system: norepinephrine lethality (α1-adrenergic blockade); test: Inhibition of Norepinephrine (NE) Lethality; assay type: in vivo; details: po; read-out: Inhibition of NE Lethality ED50 (alpha-block)
Description: 5. Inhibition of Norepinephrine Lethality--drug inhibition of the lethality of noradrenergic drug norepinephrine indicates α1 -adrenergic blockade.

[7] = system: α2-adrenergic binding sites; test: α2-adrenergic receptor binding; details: in words
Description: as §1
Rosenblatt, et al., Brain Res., 160: 186
(1979); U'Prichard, et al., Science, 199:
197 (1978); U'Prichard, et al., Molec.

α1 receptor = test: α1 binding vs. [^3 H]WB4101
Description: as §1, with “Certain compounds (commonly referred to as ligands) have been identified which preferentially bind to specific high affinity sites in brain tissue dealing with psychotropic activity or potential for side effects.” left out

[8] = molecular target: Muscarinic Cholinergic receptor; test: Muscarinic cholinergic receptor binding
Description: as §1, with “Certain compounds (commonly referred to as ligands) have been identified which preferentially bind to specific high affinity sites in brain tissue dealing with psychotropic activity or potential for side effects.” left out
Cholinergic Yamamura, et al., Proc. Natn. Acad. Sci.

[9] = in rats; compared with racemic BMY 14802; in words
[10] = Rattus norvegicus, po; read-out: Inhibition of APO-Stereotypy ED50
[11] = Rattus norvegicus, po; read-out: CAR ED50

## OC(CCCN1CCN(c2ncc(F)cn2)CC1)c1ccc(F)cc1 (single isomer, unassigned) [(+)-- enantiomer of BMY 14802, (+)--α-(4-Fluorophenyl)-4-(5-fluoro-2-pyrimidinyl)-1-piperazinebutanol Hydrate]
[1]; [9]
  inhibition of apomorphine stereotypy, potency relative to racemic material: The converse was true
[2]; in words
  reversal of neuroleptic-induced catalepsy, potency relative to racemic material: The converse was true

## OC(CCCN1CCN(c2ncccn2)CC1)c1ccc(F)cc1 (stereo not shown) [des-fluoro analog of MJ 14802]
[3]; rat, in vivo
  time after which CAR activity is lost: lost after three hours

## Cl.OC(CCCN1CCN(c2ncc(F)cn2)CC1)c1ccc(F)cc1 (racemic) [MJ 14802, 4-[4-[5-Fluoro-2-pyrimidinyl]-1-piperazinyl]-1-(4-fluorophenyl)butanol Hydrochloride]
Opiate binding sites
  activity at opiate binding sites: essentially inactive
Catalepsy; in words
  catalepsy production: fails to cause catalepsy
Catalepsy
  ED50: > 100 mg/kg
[4]; in words
  dopamine receptor binding: very weak dopamine receptor binding
[4]; vs. [^3 H]spiperone, read-out: DA Binding (vs. [^3 H]spip.) IC50
  IC50: 6.4 µM
GABA binding sites
  activity at GABA binding sites: essentially inactive
[5]
  activity at serotonergic binding sites: essentially inactive
[6]
  ED50: > 100 mg/kg
[7]
  activity at α2-adrenergic binding sites: essentially inactive
[1]; Rattus norvegicus, po, read-out: Inhibition of APO-Stereotypy ED50
  ED50: 33 mg/kg
[1]; rat, in vivo
  duration of action in the inhibition of apomorphine stereotypy: 4 h
α1 receptor; in words
  α1-adrenergic activity: lacks anticholinergic and α1 -adrenergic activities
α1 receptor; vs. [^3 H]WB4101
  IC50: 0.52 µM
[3]; Rattus norvegicus, po, read-out: CAR ED50
  ED50: 26.4 mg/kg
[3]; rat, in vivo
  duration of action in the inhibition of the CAR: > 7 h
[2]; Rattus norvegicus, po, read-out: Catalepsy Reversal ED50
  ED50: 16.9 mg/kg
[2]; in words
  reversal of neuroleptic-induced catalepsy: reverses neuroleptic-induced catalepsy
[8]
  IC50: > 1 µM
[8]; in words, Hydrochloride
  activity at cholinergic binding sites: essentially inactive; also recorded: lacks anticholinergic

## O.OC(CCCN1CCN(c2ncc(F)cn2)CC1)c1ccc(F)cc1 (single isomer, unassigned) [(-)-- enantiomer, (-)-α-(4-Fluorophenyl)-4-(5-fluoro-2-pyrimidinyl)-1-piperazinebutanol Hydrate]
[1]; [9]
  inhibition of apomorphine stereotypy, potency relative to racemic material: more potent than racemic material
[2]; in words
  reversal of neuroleptic-induced catalepsy, potency relative to racemic material: less potent

## CSc1ccc2c(c1)N(CCC1CCCCN1C)c1ccccc1S2 (stereo not shown) [Thioridazine, reference compound]
Catalepsy
  ED50: 45.2 mg/kg
[6]
  ED50: 2.2 mg/kg
[1]; [10]
  ED50: 280 mg/kg
[3]; [11]
  ED50: 126 mg/kg
[2]
  Catalepsy Reversal ED50: I

## CN1CCN(C2=Nc3cc(Cl)ccc3Nc3ccccc32)CC1 [Clozapine, reference compound]
Catalepsy
  ED50: > 200 mg/kg
[6]
  ED50: 3.5 mg/kg
[1]; [10]
  ED50: 49.2 mg/kg
[3]; [11]
  ED50: 24 mg/kg
[2]
  Catalepsy Reversal ED50: I
